Like-named read-outs stand apart in the source and are kept apart here.
Target: human α-thrombin (Homo sapiens, UniProt P00734)
Experiment: In vitro assay for determining proteinase inhibition, human α-thrombin
Type: biochemical
Description: The assays were carried out at 25° C. in 0.05 M TRIS buffer pH 7.4, 0.15 M NaCl, 0.1% PEG. Trypsin assays also contained 1 mM CaCl2.
Concentrations of stock solutions of Z-GPR-afc were determined from measurements of absorbance at 380 nm of the 7-amino-4-trifluoromethyl coumarin produced upon complete hydrolysis of an aliquot of the stock solution by thrombin.
Times required to achieve equilibration between enzyme and inhibitor were determined in control experiments. Initial velocities of product formation in the absence (Vo) or presence of inhibitor (Vi) were measured. Assuming competitive inhibition, and that unity is negligible compared Km /[S], […] (where [S], [I], and e respectively represent the total concentrations, of substrate, inhibitor and enzyme), the equilibrium constant (Ki) for dissociation of the inhibitor from the enzyme can be obtained from the dependence of Vo /Vi on [I] shown in equation 1.

[1] = thrombin, 25° C., 0.05 M TRIS buffer pH 7.4, 0.15 M NaCl, 0.1% PEG, read-out: Inhibitory activity, Ki

SMILES	Ki [1] [nM]	Ki [nM]
Cc1nc(N)ccc1CNC(=O)Cn1c(C)cc(S(=O)(=O)N2CCCC2)c(N)c1=O	< 5	–
Cc1nc(N)ccc1CNC(=O)Cn1c(C)cc(S(=O)(=O)NCC2CCC2)c(N)c1=O	–	< 5
Cc1nc(N)ccc1CNC(=O)Cn1c(C)cc2c(c1=O)NCCS2(=O)=O	> 5	–
Cc1nc(N)ccc1CNC(=O)Cn1c(C)cc2c(c1=O)NCC(c1ccccc1)S2(=O)=O (centres unmarked)	> 5	–
Cc1nc(N)ccc1CNC(=O)Cn1c(C)cc2c(c1=O)NCN(CC1CC1)S2(=O)=O	–	< 5

Reference: patent publication US6117888A, “Thrombin inhibitors” (Merck & Co., Inc., priority 1999, dated 2000)
